In patent US5308763A, “Method of making primary culture of olfactory neurons” (The Johns Hopkins University, priority 1992, dated 1994):
“Also recorded” adds a separate entry of the source. Like-named read-outs stand apart in the source and are kept apart here.

Legend:
[1] = system: Primary olfactory neurons; test: Effect of odorant on cyclic AMP levels in primary olfactory neuron cultures (RIA); type: cell-based, rat; conditions: for activity at 10 µM: Rattus norvegicus, Neuron, 10 uM IBMP, ± SEM, read-out: cAMP
Procedure: (§1) After 5-7 days in primary culture, olfactory neuronal cells were exposed to odorants and cyclic AMP levels assayed. To avoid transient changes in intracellular cyclic AMP levels caused by feeding, the medium was changed to 0.5 ml of MEM-AIR containing 0.1% (w/v) RIA-grade BSA 2-3 hr before use. At zero-time, cultures received an additional 0.5 ml of MEM-AIR with or without 10 uM 2-isobutyl-3-methoxypyrazine (IBMP). At various times thereafter the entire medium was aspirated and the reaction quenched by addition of 6% in cold TCA. Cellular extracts were processed and RIA for cyclic AMP was performed as described below.
(§2) Primary cultures of olfactory neurons were plated in laminin-treated 24-well cluster dishes at a density of 1×10^6 cells per cm^2. Cells were used between days 5-7 in culture. Thirty min before experimentation, monolayers were fed wtih MEM-AIR containing 0.1% (w/v) RIA grade BSA. Immediately prior to use, odorants were diluted from a 50 mM stock in absolute ethanol to 10 uM. At zero time, 0.5 ml of MEM-AIR containing 0.1% RIA grade BSA and odorant at twice the final concentration was added to wells.
(§3) The experiment was terminated by aspiration of culture medium and addition of 200 ul of 6% (w/v) trichloroacetic acid (TCA) at 0° C. Culture wells were heated to 56° C. in an oven for 1 hr, scraped, sonicated, chilled, and microfuged for 30 sec. The supernatants were extracted 4 times with 5 volumes of ether, and the ether-extracted water phase was lyophilized to dryness. Samples were resuspended in 200 ul of RIA-NEN buffer (NEN/DuPont, Boston, Mass.) and RIA assay was performed according to specifications of the cyclic AMP kit.

[2] = system: adenylyl cyclase; test: Adenylyl cyclase augmentation in olfactory neuronal cultures by odorants; type: cell-based
Text: The cells of the olfactory epithelium from which the neuronal cells have been purified are mainly the sustentacular cells and the basal cells. These cells can be distinguished on the basis of morphology, marker proteins, and lack of excitability.

[3] = system: NG-108 cells; test: Effect of odorant on cyclic AMP levels in NG-108 cells (RIA); type: cell-based; conditions: for activity at 10 µM: 10 uM IBMP, ± SEM, read-out: cAMP
Procedure: as §1, §2, §3
1 NG-108 cells (a generous gift from Dr. Karen Braas, University of Vermont, Burlington, Vt.) were grown and maintained as previously described (Braas, Childers and U'Prichard, 1983). For experimentation, cells were plated in 24-well clustered dishes and treated similarly to olfactory neurons. NG-108 cells are hybrid cells of a globlastoma and a non-olfactory neural-like cell. NG-108 is a continuous cell line.

[4] = system: olfactory neurons; test: Evaluation of substrate matrix substances for plating efficiency and morphology of olfactory neurons; type: cell-based, rat; conditions: for plating efficiency (in words) / process / neurite outgrowth (in words): culture surface coated with the substance
Procedure: Two chamber slides were pretreated in a number of ways, For laminin coating, 1 ml of MDV containing 25 ug/ml laminin was plated onto glass two-chamber slides overnight at 37° C.; before use, the slides were rinsed with MDV. For fibronectin, slides were treated with a solution containing 1 ml of MDV containing 20 ug/ml fibronectin (Collaborative Research), incubated overnight at 37° C. and rinsed with MDV prior to use. For polyornithine (PORN, Sigma Chemicals), a solution of a concentration of 1 mg/ml PORN in deionized distilled water was added to slides, incubated 1 hr at 37° C., rinsed twice with deionized distilled water, and rinsed once with MDV prior to use. When laminin was used on PORN-treated slides, slides were treated with PORN and then laminin in the usual manner. Coating of slides with poly-D-lysine was performed analogous to treatment with polyornithine. Heparan sulfate was diluted in MDV to a concentration of 10 ug/ml and 1 ml was placed on a slide, maintained overnight at 37° C., and rinsed with deionized distilled water prior to use. Collagen (Gibco) or collage IV (Collaborative Research) was prepared as a 50 ug/ml solution in deionized distilled water and 1 ml of this solution utilized per slide. In the case of collagen, the solution was allowed to air dry. Collage IV was maintained overnight at room temperature, aspirated, air dried and then rinsed twice with deionized distilled water prior to use. When laminin was used with collagen IV, collage IV was prepared as described, and laminin was subsequently added in the usual manner. Matrigel (Collaborative Research) was utilized according to manufacturer's instructions.
Primary cultures were prepared as described above and plated onto a number of different substrates and examined by phase contrast as well as immunofluorescence with antivimentin antisera (FIG. 6).
Matrigel was also examined as a substrate (FIG. 7).

[5] = system: olfactory neurons; test: Effect of NGF on olfactory neuronal survival and neurite extension; type: cell-based, rat
[6] = read-out: concentration eliciting comparable levels of excitation (50% of maximal adenylyl cyclase augmentation)

## COc1nccnc1CC(C)C [IBMP, 2-isobutyl-3-methoxypyrazine]
[1]; 0.5 min
  activity at 10 µM: 350 ± 160%
[1]; 1 min
  activity at 10 µM: 250 ± 92%
[1]; 5 min
  activity at 10 µM: 270 ± 113%
[1]; 0.25 h, time 15 min
  activity at 10 µM: 175 ± 47%
[1]; olfactory neurons
  maximum increase in intracellular cyclic AMP over control levels: approximately three
  rise in intracellular cyclic AMP levels (in words): rapid, transient rise in intracellular cyclic AMP levels
[2]; read-out: concentration stimulating to 50% of maximal adenylyl cyclase augmentation
  EC50: 1 nM
[3]; NG-108, 0.5 min, time 0.5 min
  activity at 10 µM: 103 ± 19%
[3]; NG-108, 1 min, time 1.0 min
  activity at 10 µM: 94 ± 32%
[3]; NG-108, 5 min, time 5.0 min
  activity at 10 µM: 99 ± 16%
[3]; NG-108, 0.25 h, time 15 min
  activity at 10 µM: 70 ± 41%
[3]; NG-108 cells, similar treatment
  change of cyclic AMP levels (in words): does not alter cyclic AMP levels

## CC(C)=CCCC(C)=CC#N [citralva]
[2]; [6]
  EC50: 1000 to 10000 nM

## CC(C)CC(=O)O [isovaleric acid]
[2]; [6]
  EC50: 1000 to 10000 nM

## collagen
[4]
  plating efficiency (in words): somewhat better plating efficiency than poly-D-lysine, polyornithine or heparan-sulfate
  process / neurite outgrowth (in words): process outgrowth is still stunted

## fibronectin
[4]
  process / neurite outgrowth (in words): processes are shorter

## laminin
[4]
  plating efficiency (in words): optimal plating efficiency
  process / neurite outgrowth (in words): cells extend neurites in a random fashion
[4]; duplicate suspensions, laminin vs matrigel, FIG. 7
  aggregation of cells (in words): no tendency to reaggregate

B1: NGF: nerve growth factor (NGF, Collaborative Research) (protein, UniProt P01139 122-241, looked up)
Beta-nerve growth factor: SSTHPVFHMGEFSVCDSVSVWVGDKTTATDIKGKEVTVLAEVNINNSVFRQYFFETKCRASNPVESGCRGIDSKHWNSYCTTTHTFVKALTTDEKQAAWRFIRIDTACVCVLSRKATRRG
modifications: Beta-nerve growth factor
[5]; NGF 25 ng/ml
  survival and neurite extension (in words): necessary for survival of olfactory neurons; also recorded: affects both olfactory neuronal survival and neurite extension in culture
[5]; by 3 days in culture, without NGF
  process extension without NGF (in words): lose process extension
[5]; by 3 days in culture, without vs with 25 ng/ml NGF
  decrease of cell viability without NGF: approximately 85%
